Reference: patent publication US20170073337A1, “DIHYDROTHIAZINE AND DIHYDROOXAZINE DERIVATIVES HAVING BACE1 INHIBITORY ACTIVITY” (Shionogi & Co., Ltd., priority 2014, published 2017)
Values after ≈ are worked out from the molar mass of the structure shown. Like-named read-outs stand apart in the source and are kept apart here.

Key:
[1] = system: Aβ production in neuroblastoma SH-SY5Y cells (SH/APPwt); test: β-amyloid (Aβ) production inhibitory effect in cell: 384-well; type: cell-based; conditions: Homo sapiens, Assay format 384-well
Protocol: Neuroblastoma SH-SY5Y cells (SH/APPwt) with human wild-type β-APT excessively expressed therein were prepared at 4×10^5 cells/mL, and 50 μl portions thereof were inoculated into each well of a 384-well culture plate (Corning) added 0.5 μl of the test compound of the present invention (DMSO solution). The final DMSO concentration was 1%, and the amount of the cell culture was 50 μl. After the incubation was performed for 21 hours from the cell seeding, 5 μl of the culture supernatant was collected from each fraction. The amount of the Aβ in each fraction was measured.
The Aβ amount was measured as follows. 5 μl of a homogeneous time resolved fluoresrenee (HTRF) measurement reagent (Amyloid β1-40 peptide; CIS bio international) and 5 μl of the culture supernatant were put into a 384′well plate (a black plate: Corning) and mixed with each other, and then left standing overnight at 4° C. while the light was shielded. Then, the fluorescence intensity (620 nm and 665 nm) was measured with EnViston (Perkin Elmer life sciences).

[2] = molecular target: T1, CYP2C9 (Homo sapiens, UniProt P11712); test: CYP inhibition test (CYP2C9); type: in vitro ADME; conditions: pooled human liver microsomes; tolbutamide methyl-hydroxylation
T1 construct: The commercially available pooled human liver microsomes are used as an enzyme resource; from tissue; host or cells: pooled human liver microsomes
From the text: (§1) The CYP inhibition test is a test to assess the inhibitory effect of a compound of the present invention towards typical substrate metabolism reactions on CYP enzymes in human liver microsomes. The marker reactions on human main five CYP enzymes (CYP1A2, 2C9, 2C19, 2D6, and 3A4) are used as follows: 7-ethoxyresorufin O-deethylation (CYP1A2), tolbutamide methyl-hydroxylation (CYP2C9), mephenytoin 4′-hydroxylation (CYP2C19), dextromethorphan O-demethylation (CYP2D6), and terfenadine hydroxylation (CYP3A4). The commercially available pooled human liver microsomes are used as an enzyme resource.
(§2) The reaction conditions were as follows: substrate, 0.5 μmol/L ethoxyresorufin (CYP1A2), 100 μmol/L tolbutamide (CYP2C9), 50 μmol/L, S-mephenytoin (CYP2C19), 5 μmol/L dextromethorphan (CYP2D6), 1 μmol/L terfenadine (CYP3A4): reaction time, 15 minutes: reaction temperature, 37° C.; enzyme, pooled human liver microsomes 0.2 mg protein/mL; concentrations of the compound of the present invention, 1, 5, 10, 20 μmol/L (four points).
(§3) Five kinds of substrates, human liver microsomes, and a compound solution of the present invention in […] Hepes buffer were added to a 96-well plate at the composition as described above as a reaction solution. NADPH as a cofactor was added to this 96-well plate in order to initiate metabolism reactions. After the incubation at 37° C.for […], a methanol/acetonitrile=1/1 (v/v) solution was added to stop the reaction. After the centrifugation at 3000 rpm for 15 minutes, resorufin (CYP1A2 metabolite) in the supernatant was quantified by a fluorescent plate reader, and hydroxytolbutamide (CYP2C9 metabolite), 4′-hydroxymephenytoin (CYP2C19 metabolite), dextrorphan (CYP2D6 metabolite), and terfenadine alcohol metabolite (CYP3A4 metabolite) in the supernatant were quantified by LC/MS/MS.
(§4) The sample adding DMSO to a reaction system instead of compound of the present invention solution was adopted as a control (100%) because DMSO was used as a solvent to dissolve a compound of the present invention. Remaining activity (%) was calculated at each concentration of a compound of the present invention, and IC50 value was calculated by reverse presumption by a logistic model using a concentration and an inhibition rate.

[3] = molecular target: T2, CYP2C19 (Homo sapiens, UniProt P33261); test: CYP inhibition test (CYP2C19); type: in vitro ADME; conditions: pooled human liver microsomes; mephenytoin 4′-hydroxylation
T2 construct: The commercially available pooled human liver microsomes are used as an enzyme resource; from tissue; host or cells: pooled human liver microsomes
From the text: as §1, §2, §3, §4

[4] = molecular target: T3, CYP1A2 (Homo sapiens, UniProt P05177); test: CYP inhibition test (CYP1A2); type: in vitro ADME; conditions: pooled human liver microsomes; 7-ethoxyresorufin O-deethylation
T3 construct: The commercially available pooled human liver microsomes are used as an enzyme resource; from tissue; host or cells: pooled human liver microsomes
T3 sequence (P05177 1-516): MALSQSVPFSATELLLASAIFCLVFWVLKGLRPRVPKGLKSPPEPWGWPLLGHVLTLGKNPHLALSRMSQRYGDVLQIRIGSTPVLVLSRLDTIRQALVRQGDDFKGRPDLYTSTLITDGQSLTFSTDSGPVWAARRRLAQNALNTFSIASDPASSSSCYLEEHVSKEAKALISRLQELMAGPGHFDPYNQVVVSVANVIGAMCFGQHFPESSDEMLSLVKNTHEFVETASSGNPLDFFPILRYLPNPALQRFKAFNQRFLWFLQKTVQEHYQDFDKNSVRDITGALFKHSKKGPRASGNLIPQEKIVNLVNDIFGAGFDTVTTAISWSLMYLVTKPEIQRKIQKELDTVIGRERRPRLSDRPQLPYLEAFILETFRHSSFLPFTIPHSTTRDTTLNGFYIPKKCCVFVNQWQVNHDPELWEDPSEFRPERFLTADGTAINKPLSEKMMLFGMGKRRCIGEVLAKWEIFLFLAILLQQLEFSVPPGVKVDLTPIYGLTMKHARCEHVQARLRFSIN
From the text: as §1, §2, §3, §4

[5] = molecular target: T4, human ether-a-go-go related gene (hERG) channel (Homo sapiens, UniProt Q12809); test: hERG test; type: cell-based; conditions: % inhibition of IKr tail peak current at 3 uM; CHO cells expressing hERG
T4 construct: expressed in transfected cells; host or cells: CHO cells
From the text: For the purpose of assessing risk of an electrocardiogram QT interval prolongation, effects on delayed rectifier K+ current (IKr), which plays an important role in the ventricular repolarization process of the compound of the present invention, was studied using CHO cells expressing human ether-a-go-go related gene (hERG) channel.
A cell was retained at a membrane potential of […] by whole cell patch clamp method using an automated patch clamp system (QPatch:Sophion Bioscience A/S). After application of leak potential at −50 mV, IKr induced by depolarization pulse stimulation at +20 mV for 2 seconds and, further, repolarization pulse stimulation at −50 mV for 2 seconds was recorded.

[6] = Solubility test; type: physicochemical; conditions: for solubility kinetic at 1 h: kinetic from dmso stock; for solubility kinetic at 16 h: solubility in JP 2nd fluid B, 1% DMSO, *2: shaken for 1 hour at room temperature
Protocol: A 10 mmol/L solution of the compound was prepared with DMSO, and 2 μL of the compound of the present invention solution was added, respectively, to 198 μL of JP 1st fluid (water was added to 2.0 g of sodium chloride and 7.0 ml, of hydrochloric acid to reach 1000 mL) and JP 2nd fluid (See Table 4). The mixture was left standing for 16 hours at 25° C. or shaken for 1 hour at ruom temperature, and the mixture was vacuum-filtered. The […] was ten or one hundred-fold diluted with metbanol/water=1/1 (v/v) or MeCN/MeOH/H2O(=1/1/2), and the compound concent ration in the filtrate was measured with LC/MS or solid phase extraction (SPE)/MS by the absolute calibration method.

[7] = molecular target: T5, CYP3A4 (Homo sapiens, UniProt P08684); test: CYP inhibition test (CYP3A4); type: in vitro ADME; conditions: pooled human liver microsomes; terfenadine hydroxylation
T5 construct: The commercially available pooled human liver microsomes are used as an enzyme resource; from tissue; host or cells: pooled human liver microsomes
From the text: as §1, §2, §3, §4

[8] = molecular target: T6, Recombinant human BACE1 (Homo sapiens, UniProt P56817); test: Assay of BACE1 inhibitory activity: 384-well; type: biochemical; conditions: Assay format 384-well
T6 construct: purchased R&D Systems
Protocol: 5 μL of substrate peptide solution (Biotin-XSEVNLDAEFRHDSGC-Eu: X=ε-amino-n-capronic acid, Eu=Europium eryplate) was added to each well of 384-well plate (a black plate: Corning), and after addition of 0.1 μl of the compound of the present invention (DMSO solution) and 5 μl of Recombinant human BACE1 (R&D Systems), the reaction mixture was incubated at 25° C. for 2 hours. The substrate peptide was synthesized by reacting Cryptate TBPCOOH mono SMP (CIS bio international) with Biotin-XSEVNLDAEFRHDSGC (Peptide Institute, Inc.).
After the incubation for reaction, 10 μl of 8.0 μg/ml Streptavidin-XL665 (CIS bio International) dissolved in phosphate buffer (150 mmol/L K2HPO4-KH2PO4, pH 7.0, 0.008% Triton X-100, 0.8 mol/L KF) was added to each well and left stand at 25° C. for 30 minutes.

[9] = Metabolic stability test; type: in vitro ADME; conditions: human liver microsomes, 37° C., 30 minutes, NADPH
Protocol: Using a commercially available pooled human liver microsomes, a compound of the present invention was reacted for a constant time, a remaining rate was calculated by comparing a reacted sample and an unreacted sample, thereby, a degree of metabolism in liver was assessed.
A reaction was performed (oxidative reaction) at 37° C. for 0 minute or 30 minutes in the presence of 1 mmol/L NADPH in 0.2 mL of a buffer (60 mmol/L Tris-HCl pH 7.4, 150 mmol/L potassium chloride, 10 mmol/L magnesium chloride) containing 0.5 mg protein/mL of human liver microsomes. After the reaction, 50 μL of the reaction solution was added to 100 μL of a methanol/acetonltrile=1/1 (v/v), mixed and centrifuged at 3000 rpm for 15 minutes. The compound of the present invention in the supernatant was quantified by LC/MS/MS or solid phase extraction (SPE)/MS, and a remaining amount of the compound of the present invention after the reaction area calculated, letting a compound amount at 0 minute reaction time to be 100%.

[10] = JP 1st fluid, pH 1.2, simulated gastric fluid, read-out: JP1
[11] = JP 2nd fluid B, pH 6.8, aqueous buffer, read-out: JP2_μM

T2 sequence (P33261 whole entry): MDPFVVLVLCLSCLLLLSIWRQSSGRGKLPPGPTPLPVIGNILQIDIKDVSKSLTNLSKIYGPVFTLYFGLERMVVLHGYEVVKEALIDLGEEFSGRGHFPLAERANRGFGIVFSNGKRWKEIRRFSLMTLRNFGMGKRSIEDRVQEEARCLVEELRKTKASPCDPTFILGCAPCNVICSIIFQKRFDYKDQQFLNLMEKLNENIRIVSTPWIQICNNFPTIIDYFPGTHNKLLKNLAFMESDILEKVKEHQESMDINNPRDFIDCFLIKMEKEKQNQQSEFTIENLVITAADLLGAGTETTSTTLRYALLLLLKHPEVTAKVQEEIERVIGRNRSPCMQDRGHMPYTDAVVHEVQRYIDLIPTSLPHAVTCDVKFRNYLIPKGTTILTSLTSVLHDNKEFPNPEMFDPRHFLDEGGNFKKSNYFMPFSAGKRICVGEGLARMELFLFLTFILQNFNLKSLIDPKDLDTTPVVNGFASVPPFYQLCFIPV
T5 sequence (P08684 whole entry): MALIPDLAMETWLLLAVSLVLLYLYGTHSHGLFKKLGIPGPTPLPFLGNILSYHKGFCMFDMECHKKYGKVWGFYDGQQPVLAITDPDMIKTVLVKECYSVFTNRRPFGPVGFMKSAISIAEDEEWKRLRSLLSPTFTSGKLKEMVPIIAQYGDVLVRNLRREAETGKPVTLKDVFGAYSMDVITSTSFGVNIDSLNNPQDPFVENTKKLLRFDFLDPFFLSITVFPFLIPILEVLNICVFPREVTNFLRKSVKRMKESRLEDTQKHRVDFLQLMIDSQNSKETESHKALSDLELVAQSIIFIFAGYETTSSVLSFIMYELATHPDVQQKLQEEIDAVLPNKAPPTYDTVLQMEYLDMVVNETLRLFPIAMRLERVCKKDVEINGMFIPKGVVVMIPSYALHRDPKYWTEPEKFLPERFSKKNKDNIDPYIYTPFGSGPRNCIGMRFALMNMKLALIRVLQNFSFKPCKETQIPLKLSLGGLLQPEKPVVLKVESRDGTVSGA
T6 sequence (P56817 46-501): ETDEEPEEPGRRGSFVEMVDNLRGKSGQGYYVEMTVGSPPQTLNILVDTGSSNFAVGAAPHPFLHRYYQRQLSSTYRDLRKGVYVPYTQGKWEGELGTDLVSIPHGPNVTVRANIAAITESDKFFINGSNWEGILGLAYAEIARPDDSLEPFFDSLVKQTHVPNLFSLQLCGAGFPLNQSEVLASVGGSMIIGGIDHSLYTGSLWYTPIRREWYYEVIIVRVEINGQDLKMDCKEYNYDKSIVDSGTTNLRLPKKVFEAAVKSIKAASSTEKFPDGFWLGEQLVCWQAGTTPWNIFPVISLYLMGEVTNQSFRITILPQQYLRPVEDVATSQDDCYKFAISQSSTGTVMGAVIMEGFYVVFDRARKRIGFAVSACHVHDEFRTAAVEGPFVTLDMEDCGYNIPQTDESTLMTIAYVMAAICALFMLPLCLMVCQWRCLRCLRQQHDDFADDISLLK
T1 sequence (P11712 whole entry): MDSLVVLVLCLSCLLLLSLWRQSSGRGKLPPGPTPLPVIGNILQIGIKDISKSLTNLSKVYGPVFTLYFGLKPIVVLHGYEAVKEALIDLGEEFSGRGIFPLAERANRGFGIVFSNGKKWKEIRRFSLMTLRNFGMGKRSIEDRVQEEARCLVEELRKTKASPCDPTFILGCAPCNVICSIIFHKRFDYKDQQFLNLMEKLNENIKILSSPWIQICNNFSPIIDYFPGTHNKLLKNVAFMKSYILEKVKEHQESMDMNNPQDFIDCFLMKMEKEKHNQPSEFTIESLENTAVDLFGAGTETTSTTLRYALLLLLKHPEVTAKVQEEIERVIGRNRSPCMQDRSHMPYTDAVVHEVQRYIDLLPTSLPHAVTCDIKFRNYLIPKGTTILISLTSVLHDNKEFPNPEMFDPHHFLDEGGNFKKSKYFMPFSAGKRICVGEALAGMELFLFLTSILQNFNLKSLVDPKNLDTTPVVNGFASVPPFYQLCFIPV
T4 sequence (Q12809 whole entry): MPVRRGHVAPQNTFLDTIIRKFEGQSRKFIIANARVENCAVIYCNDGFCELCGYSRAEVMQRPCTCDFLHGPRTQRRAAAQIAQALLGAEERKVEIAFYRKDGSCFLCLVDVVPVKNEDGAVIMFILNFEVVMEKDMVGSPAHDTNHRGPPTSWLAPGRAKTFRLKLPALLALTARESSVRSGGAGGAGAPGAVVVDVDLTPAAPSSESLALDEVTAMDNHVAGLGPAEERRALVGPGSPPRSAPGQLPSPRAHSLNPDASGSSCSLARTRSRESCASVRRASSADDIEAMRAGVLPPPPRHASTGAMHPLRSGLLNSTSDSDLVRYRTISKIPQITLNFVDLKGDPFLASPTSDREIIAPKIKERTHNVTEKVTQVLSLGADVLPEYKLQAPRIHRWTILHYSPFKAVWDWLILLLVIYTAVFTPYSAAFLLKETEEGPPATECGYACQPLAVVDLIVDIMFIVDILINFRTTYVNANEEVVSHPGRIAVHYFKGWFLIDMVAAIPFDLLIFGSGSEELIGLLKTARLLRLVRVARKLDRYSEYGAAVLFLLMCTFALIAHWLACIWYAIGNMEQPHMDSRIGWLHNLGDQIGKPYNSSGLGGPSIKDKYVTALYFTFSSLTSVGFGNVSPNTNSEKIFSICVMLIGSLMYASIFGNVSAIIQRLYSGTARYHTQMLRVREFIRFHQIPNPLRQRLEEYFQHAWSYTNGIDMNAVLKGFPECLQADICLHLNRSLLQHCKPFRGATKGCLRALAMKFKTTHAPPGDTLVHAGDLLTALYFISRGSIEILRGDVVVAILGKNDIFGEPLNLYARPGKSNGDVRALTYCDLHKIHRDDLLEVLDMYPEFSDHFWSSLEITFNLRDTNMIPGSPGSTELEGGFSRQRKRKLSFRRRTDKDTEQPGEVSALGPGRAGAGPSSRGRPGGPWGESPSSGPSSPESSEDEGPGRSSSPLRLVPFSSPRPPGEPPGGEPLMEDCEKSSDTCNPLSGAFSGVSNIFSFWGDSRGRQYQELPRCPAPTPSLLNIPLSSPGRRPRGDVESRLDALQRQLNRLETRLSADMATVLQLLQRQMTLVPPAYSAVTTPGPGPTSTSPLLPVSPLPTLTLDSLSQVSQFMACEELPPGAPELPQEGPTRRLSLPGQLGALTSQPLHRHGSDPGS

SMILES | IC50 [1] | IC50 [2] | IC50 [3] | IC50 [4] | hERG_3 uM_% [5] | solubility kinetic at 1 h [6, 10] | solubility kinetic at 16 h ([6]; read-out: JP2_μM) | IC50 [7] | solubility kinetic at 1 h [6, 11] | IC50 [8] | remaining % [9]
C[C@]1(c2cc(NC(=O)c3cnc(OCF)cn3)ccc2F)N=C(N)SCC12CC(F)(F)C2 [Compound I-56] | 0.00053 µM | ≥ 20 µM | ≥ 20 µM | ≥ 20 µM | 37.6% | > 50 µM | >50 µM | ≥ 10 µM | – | – | –
CC[C@H]1SC(N)=N[C@](C)(c2cc(NC(=O)c3ncc(C#N)cc3C)ccc2F)[C@H]1F [Compound I-68] | 0.00041 µM | – | ≥ 20 µM | ≥ 20 µM | – | > 50 µM | – | ≥ 10 µM | 9.1 µM (≈ 3.91 µg/mL) | 0.0116 µM | –
CC[C@H]1SC(N)=N[C@](C)(c2cc(NC(=O)c3ccc(C#N)cn3)ccc2F)[C@H]1F [Compound I-69] | 0.00042 µM | – | – | – | – | > 50 µM | >50 µM | ≥ 10 µM | – | 0.00924 µM | 77.6%
COC[C@H]1SC(N)=N[C@](C)(c2cc(NC(=O)c3ccc(C#N)cn3)ccc2F)[C@H]1F [Compound I-92] | 0.001 µM | – | ≥ 20 µM | ≥ 20 µM | – | > 50 µM | >50 µM | ≥ 20 µM | – | 0.00827 µM | 81%
COc1ccc(C(=O)Nc2ccc(F)c([C@@]3(C)N=C(N)O[C@H](C(F)(F)C4CC4)[C@@H]3F)c2)nc1 [Compound I-93] | 0.028 µM | – | ≥ 20 µM | ≥ 20 µM | – | > 50 µM | – | – | 6.1 µM (≈ 2.85 µg/mL) | 0.0445 µM | 82.2%
C[C@]1(c2cc(NC(=O)c3cnc(OCF)cn3)ccc2F)N=C(N)O[C@H](C2(F)CC2)[C@@H]1F [Compound I-94] | 0.0035 µM | – | – | – | – | – | – | – | – | – | –
COc1cnc(C(=O)Nc2ccc(F)c([C@@]3(C)N=C(N)O[C@H](C4(F)CC4)[C@@H]3F)c2)cn1 [Compound I-97] | 0.0025 µM | – | ≥ 20 µM | ≥ 20 µM | – | > 50 µM | >50.0 µM | ≥ 20 µM | – | 0.0105 µM | –
COc1ccc(C(=O)Nc2ccc(F)c([C@@]3(C)N=C(N)O[C@H](C4(F)CC4)[C@@H]3F)c2)nc1 [Compound I-100] | 0.013 µM | – | ≥ 20 µM | ≥ 20 µM | – | > 50 µM | >50.0 µM | ≥ 20 µM | – | 0.026 µM | 60.2%
[2H]C([2H])([2H])Oc1cnc(C(=O)Nc2ccc(F)c([C@@]3(C)N=C(N)S[C@H](C)[C@@H]3F)c2)cn1 [Compound I-111] | 0.00097 µM | – | ≥ 20 µM | ≥ 20 µM | – | 48.4 µM (≈ 19.9 µg/mL) | – | ≥ 20 µM | > 50 µM | 0.0103 µM | 64.9%
